# Source: patent publication US20240415919A1, “COMPOSITIONS AND METHODS FOR TREATMENT OF AUTOIMMUNE DISORDERS AND CANCER” (Dana-Farber Cancer Institute, Inc., priority 2021, published 2024)
# “And” between values parts separate entries of the source, which are not always exact repeats. Equal values may be shown once. “Also recorded” adds a separate entry of the source.
# Experiments:
# FL9.2 T cells = test: FL9 peptide immunization of hosts adoptively transferred with FL9.2 T cells; assay type: in vivo, mouse; settings: i.p. immunization with peptide in CFA; CD45.1+ B6 or TCRα-/- hosts
# Procedure: CD45.1+B6 hosts were adoptively transferred with FL9.2 T cells and immunized i.p. with FL9 in CFA or no peptide (CFA alone) on day 0. Three days later, activation (CD69) proliferation of FL9.2 T cells (Ki67) was measured.
# (§1) CD45.1^+ B6 or TCRα^−/− mice were transferred with CFSE labelled 2×10^6 FL9.2 Tg T cells followed by i.p. immunization with 100 μg FL9 or FL9-68 peptides in CFA. Proliferation and activation of FL9.2 Tg T cells in the adoptive hosts were analzyed by assessing CFSE dilution, Ki67 and CD69 expression at day 3 and 6 after transfer.
# as §1, with “CD45.1^+B6” for “CD45.1^+ B6”
# FL9 T cells [1] = test: Activation (CD69) of FL9 TCR+ hybridoma / FL9 T cells by peptide-loaded EL4 (Qa-1+) cells; assay type: cell-based, mouse; settings: 0, 1, 3 and 10 μg/ml, compared with cognate FL9 self-peptide
# Procedure: FIG. 4 provides a graphical representation showing a Qa-1-peptide yeast library, which identified peptides with superagonistic activity. FL9 T cells were stimulated with EL4 (Qa-1+) cells in the presence of surrogate peptides selected from peptide-Qa-1 yeast library for 3 days. Activation status of FL9 T cells was measured by CD69 expression.
# FIG. 58A-C and FIG. 58D-E provides representation showing identification of superagonists for FL9 T cells. FIG. 58(A) provides a schematic showing a library composed of 96 FL9 peptide variants (crude peptides) was generated by aa mutagenesis at the Qa-1 anchoring positions (p2, p3, p6, p^7 and p9). FL9 TCR^+ hybridomas were incubated with EL4 cells (Qa-1^+) loaded with each FL9 peptide variant for 12 hrs and CD69 expression and TCR downregulation were measured as an indication of TCR stimulation. […] Expression of Vα3.2 and Vβ5 on EL4 cells (trogocytosis) was measured (right). […] Dose-dependent activation of FL9 T cells was measured by culturing FL9.2 T cells with EL4 (Qa-1^+) at various concentrations of indicated peptides (0, 1, 3 and 10 μg/ml). […] Six days later, proliferation of FL9.2 T cells (CD45.2^+Vα3.2^+VD5^+) was measured by CFSE dilution (left). CD45.1^+ B6 mice were immunized with Ova323-339 peptide in CFA on day 6 and the frequency of I-A^b/Ova323-339 Tet^+ CD4 cells in activated (CD44^+) CD4 cells was analyzed on day 14. […]
# FL9 T cells [2] = test: In vitro FL9 T cell proliferation and killing of activated CD4 cells; assay type: cell-based
# [3] = system: I-Ab/Ova323-339 Tet+ CD4 cells; test: FL9-68 vaccination followed by Ova323-339/CFA immunization; assay type: in vivo, mouse
# Procedure: FIG. 58(E) CD45.1^+ B6 mice that were vaccinated with FL9-68 in CFA or CFA alone on day 0 were immunized with Ova323-339 peptide in CFA on day 6. The frequency of I-Ab/Ova323-339 Tet^+ CD4 cells in activated (CD44^+) CD4 cells in the spleen and dLN was analyzed on day 14.
# Balb/C heart allografts = test: Balb/C heart transplantation into skin-sensitized B6 hosts after peptide vaccination; settings: for heart graft survival: compared to adjuvant alone; for graft pathology (C4d deposition, immune cell infiltration): heart allografts; for donor-specific antibody (DSA): heart graft / skin-sensitized recipients
# Procedure: After selecting FL9-SA, we performed BALB/c to B6 skin transplantation with or without Hsp60p2l6 and FL9-SA, followed by heart transplantation.
# B6 mice were immunized i.p with 50 μg FL9-68/IFA or with IFA alone at day 0 and 7 followed by a BALB/C→B6 skin transplant at day 10. FL9-68/IFA or IFA immunization was repeated on days 10, 13 and 16. At day 27, fully vascularized Balb/C hearts were transplanted into the abdominal cavity of B6 mice using microsurgical techniques, as previously described (Cai et al., 2016). Heart graft survival was determined by monitoring palpable heart beating. At day X after skin sensitization, levels of FL9 T cells, Tfh, GC B and plasma cells in dLNs were analyzed by flowcytometry. Serum was collected from the heart graft recipient B6 mice that were either immunized with FL9-68/IFA or IFA alone at day 16. […] Histological analysis of heart grafts was performed by InvivoEx company using anti-C4d Ab (Hycult Biotech) and Vector Blue Alkaline Phosphatase Substrate Kit (Vector Laboratories).
# B6 mice were immunized i.p with 50 μg FL9-68-Adjuvant (IFA or AddaVax™) or Adjuvant alone at day 0 and 7 followed by a BALB/C→B6 skin transplant at day 10. FL9-68-Adj or Adj immunization was repeated on days 10, 13 and 16. At day 27, fully vascularized Balb/C hearts were transplanted into the abdominal cavity of B6 mice using microsurgical techniques, as previously described^36. Heart graft survival was determined by monitoring palpable heart beating. At day 16 after skin sensitization, levels of FL9 T cells, Tfh, GC B and plasma cells in dLNs were analyzed by flowcytometry. Serum was collected from the heart graft recipient B6 mice that were either immunized with FL9-68/IFA or IFA alone at day 16. […] Histological analysis of heart grafts was performed by InvivoEx company using anti-C4d Ab (Hycult Biotech) and Vector Blue Alkaline Phosphatase Substrate Kit (Vector Laboratories).
# MCMV = test: Murine MCMV infection model with FL9-68 vaccination; assay type: in vivo, mouse
# Procedure: FIG. 10A-C provides a graphical representation showing FL9-68-dependent mobilization of CD8 Treg dampens autoantibody responses during MCMV infection. WT B6 mice were infected with MCMV (2×10^5 pfu) and vaccinated with (100 ug/dose) FL9-68 in IFA or IFA alone at day 0, 8 and 12. Mice were bled at day 3, 10 and 18 and levels of anti-dsDNA Ab (panel A), viral titer (panel B) and frequency of activated CD8 Treg (panel C, Ly49+NKG2D+CD8) are shown.
sequence,measurement,setting,value
"FYAEATLML [FL9-68, FL9 peptide variant containing a P→L substitution at pos 7; superagonist for CD8 Treg]",in vivo activation/proliferation of transferred FL9 TCR+ CD8 T cells,FL9.2 T cells,activated FL9 TCR^+ CD8 T cells; also recorded: activates FL9 T cells in vivo
same,stimulatory activity for FL9 T cells / FL9.2 and FL9.8 TCRs (CD69 expression),FL9 T cells [1],superior ability to activate FL9 T cells; also recorded: superior ability to stimulate FL9 T cells; also recorded: markedly enhanced dose-dependent stimulatory activity; also recorded: significantly enhanced stimulating activity in vitro and in vivo; also recorded: significantly enhanced stimulatory activity in vitro and in vivo
same,proliferation of FL9 T cells and killing of activated CD4 cells,FL9 T cells [2],promoted proliferation of FL9 T cells leading to enhanced killing of activated CD4 cells
same,inhibition of the response of I-Ab/Ova323-339 tet+ CD4 cells,"[3]; FL9-68 in CFA day 0, Ova323-339/CFA day 6, analysis day 14",50% and > 50%
same,numbers or percent of non-specifically activated CD4 cells,[3]; same experiment as E6,did not reduce the numbers or percent of non-specifically activated CD4 cells
same,increase in FL9-specific CD8 cells within the Ly49+ CD8 T cell pool,Balb/C heart allografts; B6 mice bearing Balb/C skin allograft,4-5 fold
same,heart graft survival,Balb/C heart allografts,significantly prolonged graft survival times; also recorded: promotes graft survival
same,heart graft survival,Balb/C heart allografts; listed as SA peptide,significantly prolonged graft survival
same,"graft pathology (C4d deposition, immune cell infiltration)",Balb/C heart allografts,markedly diminished graft pathology; also recorded: inhibits graft tissue injury
same,"graft pathology (C4d deposition, immune cell infiltration)",Balb/C heart allografts; listed as FL9 SA peptide,maintenance of tissue integrity
same,donor-specific antibody (DSA),Balb/C heart allografts,decrease of donor specific Ab (DSA) generation; also recorded: reduced donor-specific antibody (DSA) responses; also recorded: inhibits production of DSA
same,donor-specific antibody (DSA),Balb/C heart allografts; listed as FL9 SA peptide,reduced generation of donor specific antibodies
same,"GC response: Tfh, GC B and plasma cells","Balb/C heart allografts; heart graft recipients, vs IFA alone","significant reduction of these cells; also recorded: decreased Tfh, GC B and plasma cell formation; also recorded: significantly reduced GC responses; also recorded: inhibition of GC Ab response"
same,alloreactive activated CD4 cells,Balb/C heart allografts; recipient CD4 cells co-incubated with irradiated donor splenocytes,decrease in alloreactive activated CD4 cells
same,efficacy relative to Hsp60p216,"Balb/C heart allografts; reduction in Tfh and mature B cells during sensitization, listed as FL9-SA",substantially more efficacious than Hsp60p2l6
same,NKG2D+Ly49+ CD8 T cells (activated CD8 Treg),"MCMV; mouse, in vivo",increase of NKG2D+Ly49^+ CD8 T cells
same,production of anti-dsDNA Ab,"MCMV; vaccination at days 0, 8 and 12 after viral infection",significantly reduced production of anti-dsDNA Ab
